“Also recorded” adds a separate entry of the source.
Tests used:
[1] = tested on: TH-positive neurons in primary mesencephalic cultures from WT and D2R−/− mice; experiment: MPP+ treatment of primary mesencephalic dopaminergic neuronal cultures, TH-positive cell counting; assay type: cell-based, mouse; settings: for number of surviving TH-positive neurons: 10 μM MPP+, 24 hours
Text: (§1) D2R−/− mice and wild-type (WT) mice were obtained by mating D2R−/− mice and heterozygous mice, purchased from Institut de Genetiqul et Biologie Moleculaire et celluaire (Strasbourg, France), and their genotypes were identified by Southern hybridization analyses (An J J et al., Mol Cell Neurosci. 2004, 25: 732-741). Insemination was confirmed by vaginal plug and considered to be embryonic day 0 (E0). Pregnant mothers were killed at E14 in accordance with Society for Neuroscience Guidelines. To prepare primary mesencephalic neuronal cultures, the mesencephalon dissected from 14 day gestation mouse embryo was incubated with 0.1% of trypsin in HBSS for 10 minutes at 37° C. and triturated with a constricted Pasteur pipette in high-glucose DMEM media supplemented with 10% FBS (Invitrogen, San Diego, Calif.), 1.4 mM L-glutamine, and 6.0 g/L glucose. The neurons were plated at 1.0×10^5 cells per 18×18 mm coverslip (Marienfeld, Lauda-Konigshofen, Germany) or 2.0×10^5 cells per six-well plates precoated with 50 μg/ml poly-D-lysine and 2 μg/ml laminin (Sigma, St. Louis, Mo.). The neurons were maintained at 37° C. in a humidified 5% CO2 atmosphere in Neurobasal media supplemented with B27 and GlutaMax-1.
To determine whether the absence of dopamine D2 receptor (D2R) might affect the number of dopaminergic neurons, dopaminergic neurons, which were isolated from mesencephalons of wild-type (WT) and D2R−/− embryonic mice, were incubated on slides with 1.0×10^5 cells and precoated with 50 μg/ml poly-D-lysine and 2 μg/ml laminin (Sigma, St. Louis, Mo.) at 37° C. for 5 days, followed by performing immunofluorescence staining. […] Using a microscope equipped with an metamorph imaging system (Universal Imaging Corporation, West Chester, Pa.) in 20 randomly selected fields per each slide, cell counts and morphometric analysis were made in randomly selected unbiased counting frames (>40 frames out of 81 grids were counted). […]

[2] = tested on: D2R-mediated Nurr1 activation; experiment: NurRE-dependent luciferase reporter gene activation assay in HEK293T cells transfected with D2R, Nurr1 and NurRE-luc; assay type: cell-based
Experimental: To investigate the effect of D2R on the number of TH-positive neurons and Nurr1 expression, Nur response element (NurRE)-dependent reporter gene activation assay was carried out to determine whether or not D2R activation might induce Nurr1 activation (Philips et al, Mol Cell Biol., 1997, 17:5946-5951; Maira et al, Mol Cell Biol., 1999, 19:7549-7557). HEK293T cells distributed from Korean cell line Bank were cultured in DMEM (Dulbeco's modified eagle's medium; Invitrogen, Carlsbad, Calif.) supplemented with 10% FBS (fetal bovine serum; Invitrogen, Carlsbad, Calif.) and transfected the same with dopamine receptors, Nurr1, and NurRE gene using a jetPEI transfection reagent (Qbiogene, Carlsbad, Calif.). In detail, 5˜7×10^5 cells confluent monolayers of HEK293 cells were transfected with 1.5 μg of pSV-D2R or pSV-D1R, 1.5 μg of pCMX-Nurr1, 1.5 μg of pXP1-luc containing POMC gene promoter and NurRE (pXP1-NurRE-luc), and 0.5 μg of pCH110. In case of the transfection with Ras dominant-negative mutant, cells were transfected with 1.0 μg of pMT-RasN17 or pSK-null vector, 1.0 μg of pSV-D2R, 1.0 μg of pCMX-Nurr1, 1.0 μg of pXP1-NurRE-luc, and 0.5 μg of pCH110. After 3 hours, the transfection mixture was replaced with fresh growth medium. Assays were performed 48 hours after transfection. Cells were preincubated overnight in serum-free growth medium before treatment with agonists. The cells were treated with various concentrations of dopamine or SKF38393, respectively, for 6 hours at 37° C. with or without preincubation of haloperidol (1 μM for 5 minutes), pertussis toxin (PTX) (100 ng/ml for 12 hours), H-89 (1 μM for 20 minutes), and PD98059 (10 μM for 30 minutes). After treatment, the cells were lysed and assayed for luciferase activity using the luciferase assay system (Promega, Madison, Wis.), and luminescence was measured using a 96-well luminometer (Microlumat; EG & Berthold, Bad Wilbad, Germany).
The data obtained were fitted to a sigmoid curve with a variable slope factor using nonlinear squares regression in GraphPad Prism software, which is shown in FIG. 5.

[3] = tested on: phosphorylated ERK (p-ERK) in mesencephalic neurons from WT and D2R−/− mice; experiment: ERK phosphorylation in mesencephalic neurons (immunofluorescence and Western blot); assay type: cell-based, mouse; settings: Western blot
Experimental: Then, cells were fixed in the same manner as in EXAMPLE 2, a rabbit polyclonal anti-TH (1:1000; Pel-Freez) and a mouse monoclonal anti-phosphorylated ERK (p-ERK) (E10; 1:200; Cell Signaling, Beverly, Mass.) were reacted at 4° C. for 12 hours. Thereafter, the resultant neurons were stained at RT for 1 hour with two fluorescent antibodies, that is, Alexa Fluor 568 goat anti-rabbit IgG and Alexa Fluor 488 goat anti-mouse IgG (1:200; Molecular Probes, Eugene, Oreg.). After staining, ERK-positive neurons among TH-positive neurons were examined.
To observe immunofluorescent images, a confocal microscope system (Nikon Eclipse fluorescence microscope, TE2000-U, Nikon, Kanagawa, Japan; Ultraview RS confocal scanner, Perkin elmer, Wellesley, Mass.) or a fluorescence microscope (Axiovert 2000 microscope with epifluorescence unit, Zeiss, Zena, Germany) was used. The Western blot analysis was carried out in the following conditions. […] The resultant mixture was homogenized with probe type sonicator on ice, and followed by centrifugation at 13,000×g for 10 minutes at 4° C. Protein (50 μg), as measured by Bradford protein assay, was subjected to electrophoresis on 10% SDS-PAGE. […]

[4] = tested on: TH-positive dopaminergic neurons in mesencephalic cultures from WT and D2R−/− mice; experiment: Number of TH-positive neurons and neurite length in primary mesencephalic cultures; assay type: cell-based, mouse
Text: as §1
To determine whether the absence of dopamine D2 receptor (D2R) might affect the number of dopaminergic neurons, dopaminergic neurons, which were isolated from mesencephalons of wild-type (WT) and D2R−/− embryonic mice, were incubated on slides with 1.0×10^5 cells and precoated with 50 μg/ml poly-D-lysine and 2 μg/ml laminin (Sigma, St. Louis, Mo.) at 37° C. for 5 days, followed by performing immunofluorescence staining. The immunofluorescence staining was performed such that primarily cultured dopaminergic neurons were fixed with 4% paraformaldehyde for 20 minutes at room temperature (RT) and blocked for 1 hour in PBS containing 5% normal horse serum and 0.2% Triton X-100. Then, the neurons were incubated with a rabbit polyclonal anti-tyrosine hydroxylase (TH) (1:1000; Pel-Freez, Rogers, Ark.) in PBS containing 1% normal horse serum and 0.2% Triton X-100 at 4° C. for over 16 hours, and followed by staining according to avidin-biotin immunohistochemical procedures (Vector Laboratories, Burlingame, Calif.). Using a microscope equipped with an metamorph imaging system (Universal Imaging Corporation, West Chester, Pa.) in 20 randomly selected fields per each slide, cell counts and morphometric analysis were made in randomly selected unbiased counting frames (>40 frames out of 81 grids were counted).
Thereafter, the treated cells were fixed and stained in the same manner as in EXAMPLE 2 for counting the number TH-positive cells and analyzing the neuritic shape (FIG. 6A).
Thereafter, the neurons were treated with 1 μM quinpirol.

[5] = tested on: dopamine D1 receptor (D1R)-mediated Nurr1 activation; experiment: NurRE-dependent luciferase reporter gene activation assay in HEK293T cells transfected with D1R; assay type: cell-based
Experimental: To investigate the effect of D2R on the number of TH-positive neurons and Nurr1 expression, Nur response element (NurRE)-dependent reporter gene activation assay was carried out to determine whether or not D2R activation might induce Nurr1 activation (Philips et al, Mol Cell Biol., 1997, 17:5946-5951; Maira et al, Mol Cell Biol., 1999, 19:7549-7557). HEK293T cells distributed from Korean cell line Bank were cultured in DMEM (Dulbeco's modified eagle's medium; Invitrogen, Carlsbad, Calif.) supplemented with 10% FBS (fetal bovine serum; Invitrogen, Carlsbad, Calif.) and transfected the same with dopamine receptors, Nurr1, and NurRE gene using a jetPEI transfection reagent (Qbiogene, Carlsbad, Calif.). In detail, 5˜7×10^5 cells confluent monolayers of HEK293 cells were transfected with 1.5 μg of pSV-D2R or pSV-D1R, 1.5 μg of pCMX-Nurr1, 1.5 μg of pXP1-luc containing POMC gene promoter and NurRE (pXP1-NurRE-luc), and 0.5 μg of pCH110. […] After treatment, the cells were lysed and assayed for luciferase activity using the luciferase assay system (Promega, Madison, Wis.), and luminescence was measured using a 96-well luminometer (Microlumat; EG & Berthold, Bad Wilbad, Germany).

[6] = PD98059 treatment versus control without PD98059
[7] = D2R−/− mice, 1 μM haloperidol for 5 minutes then 1 μM quinpirole, versus control without haloperidol
[8] = WT and D2R−/− mice treated with haloperidol

C[n+]1ccc(-c2ccccc2)cc1 [MPP^+, 1-Methyl-4-phenylpyridinium]
loss of dopaminergic neurons ([1]; 1 to 10 μM MPP+ for 24 hours, D2R−/− versus WT cultures): more significant loss of dopaminergic neurons in the D2R−/− mice than in WT mice | number of surviving TH-positive neurons ([1]; D2R−/− mice cultures): 40% | number of surviving TH-positive neurons ([1]; WT mice cultures): 54%

O=S(=O)(NCCNC/C=C/c1ccc(Br)cc1)c1cccc2cnccc12 [H-89]
D2R-induced NurRE-dependent luciferase activation in the presence of PKA inhibitor ([2]; H-89 1 μM for 20 minutes): did not give rise to a significant change

COc1cccc(-c2cc(=O)c3ccccc3o2)c1N [PD98059]
Nurr1 activation by dopamine in the presence of MEK inhibitor ([2]; PD98059 10 μM for 30 minutes): noticeably reduced | phosphorylated ERK after quinpirole with MEK inhibitor ([3]; 50 μM PD98059 for 30 minutes plus quinpirole): neither WT nor D2R−/− neurons showed phosphorylated ERK | average length of neurites [4, 6]: reduced | number of TH-positive neurons [4, 6]: slightly reduced

O=C(CCCN1CCC(O)(c2ccc(Cl)cc2)CC1)c1ccc(F)cc1 [haloperidol]
D2R-mediated Nurr1 activation by dopamine after antagonist ([2]; haloperidol 1 μM preincubation for 5 minutes): reduced; also recorded: inhibited or decreased | phosphorylated ERK after quinpirole with antagonist ([3]; 1 μM haloperidol for 5 minutes plus quinpirole): neither WT nor D2R−/− neurons showed phosphorylated ERK | neuritic extension [4, 7]: no changes | number of TH-positive neurons [4, 7]: no changes | average length of the neurites [4, 8]: decreased or showed insignificant changes | number of dopaminergic neurons [4, 8]: decreased or showed insignificant changes

Oc1cc2c(c(Cl)c1O)CCNCC2c1ccccc1 (centres unmarked) [SKF81297]
Nurr1 activation by D1R-specific agonist [5]: no significant change

NCCc1ccc(O)c(O)c1 [dopamine]
luciferase activation relative to control group ([2]; HEK293T transfected with D2R, Nurr1 and NurRE-luc, dopamine at various concentrations, 6 hours): about 180% | change in luciferase activation ([2]; dopamine, in the absence of Nurr1 or D2R): no change in the activation

— patent publication US20090017489A1, “Methods For Modulating The Development Of Dopamine Neuron By The Dopamine D2 Receptor And Compositions Thereof” (Korea University Industry And Academy Cooperation Foundation, priority 2006, published 2009)
